Reference: patent publication US10681909B2, “Herbicidal triazoles” (FMC Corporation, priority 2014, dated 2020)

What was measured:
wild mustard = assay: Test D preemergence; assay type: in vivo, Sinapis arvensis; settings: for Plant response rating (0 to 100), Mustard, Wild: 16 g ai/ha, 0 is no effect, 100 is complete control; for Plant response rating: Mustard, Wild: scale 0 to 100
Text: (§1) Seeds of plant species selected from bluegrass (annual bluegrass, Poa annua), blackgrass (Alopecurus myosuroides), canarygrass (Phalaris minor), chickweed (common chickweed, Stellaria media), galium (catchweed bedstraw, Galium aparine), bromegrass, down (downy bromegrass, Bromus tectorum), Russian thistle (Salsola kali), field poppy (Papaver rhoeas), field violet (Viola arvensis), foxtail, green (green foxtail, Setaria viridis), deadnettle (henbit deadnettle, Lamium amplexicaule), ryegrass, Ital. (Italian ryegrass, Lolium multiflorum), kochia (Kochia scoparia), lambsquarters (Chenopodium album), oilseed rape (Brassica napus), pigweed (Amaranthus retroflexus), chamomile (scentless chamomile, Matricaria inodora), speedwell (bird's-eye speedwell, Veronica persica), barley, spring (spring barley, Hordeum vulgare), wheat, spring (spring wheat, Triticum aestivum), buckwheat, wild (wild buckwheat, Polygonum convolvulus), wild mustard (Sinapis arvensis), oat, wild (wild oat, Avena fatua), radish, wild (wild radish, Raphanus raphanistrum), […]), barley, winter (winter barley, Hordeum vulgare), and wheat, winter (winter wheat, Triticum aestivum) were planted into a silt loam soil and treated preemergence with test chemicals formulated in a non-phytotoxic solvent mixture which included a surfactant. At the same time, these species were planted in pots containing Sunshine Redi-Earth® planting medium comprising spaghnum peat moss, vermiculite, starter nutrients and dolomitic limestone and treated with postemergence applications of the test chemicals formulated in the same manner. Plants ranged in height from 2 to 18 cm (1- to 4-leaf stage). Treated plants and controls were maintained in a controlled growth environment for 14 to 21 d after which time all species were compared to controls and visually evaluated. […] A dash (-) response means no test result.

oilseed rape = assay: Test D postemergence; assay type: in vivo, Brassica napus; settings: scale 0 to 100
Text: as §1

bluegrass = assay: Test D preemergence; assay type: in vivo, Poa annua; settings: for Plant response rating (0 to 100), Bluegrass: 16 g ai/ha, 0 is no effect, 100 is complete control; for Plant response rating: Bluegrass: scale 0 to 100
Text: as §1

blackgrass [1] = assay: Test D postemergence; assay type: in vivo, Alopecurus myosuroides; settings: scale 0 to 100
Text: as §1

blackgrass [2] = assay: Test D preemergence; assay type: in vivo, Alopecurus myosuroides; settings: for Plant response rating (0 to 100), Blackgrass: 16 g ai/ha, 0 is no effect, 100 is complete control; for Plant response rating: Blackgrass: scale 0 to 100
Text: as §1

lambsquarters = assay: Test C preemergence; assay type: in vivo, Chenopodium album; settings: for Plant response rating (scale of 0 to 100 where 0 is no effect and 100 is complete control): Lambsquarters, preemergence; for Lambsquarters plant response rating (0 to 100): Preemergence, visual rating after 13 to 15 d
Text: (§2) Seeds of plant species selected from blackgrass (Alopecurus myosuroides), ryegrass, Italian (Italian ryegrass, Lolium multiflorum), wheat (winter wheat, Triticum aestivum), galium (catchweed bedstraw, Galium aparine), corn (Zea mays), crabgrass, large (large crabgrass, Digitaria sanguinalis), foxtail, giant, (giant foxtail, Setaria faberii), johnsongrass (Sorghum halepense), lambsquarters (Chenopodium album), morningglory (Ipomoea coccinea), nutsedge, yellow (yellow nutsedge, Cyperus esculentus), pigweed (Amaranthus retroflexus), ragweed (common ragweed, Ambrosia elatior), soybean (Glycine max), barnyardgrass (Echinochloa crus-galli), oilseed rape (Brassica napus), waterhemp (common waterhemp, Amaranthus rudis), and velvetleaf (Abutilon theophrasti) were planted into a blend of loam soil and sand and treated preemergence with test chemicals formulated in a non-phytotoxic solvent mixture which included a surfactant. At the same time, plants selected from these crop and weed species and also chickweed (common chickweed, Stellaria media), oat, wild (wild oat, Avena fatua), and kochia (Kochia scoparia), were planted in pots containing Sunshine Redi-Earth® planting medium comprising spaghnum peat moss, vermiculite, starter nutrients and dolomitic limestone and treated with postemergence applications of test chemicals formulated in the same manner. Plants ranged in height from 2 to 18 cm (1- to 4-leaf stage) for postemergence treatments. […] A dash (-) response means no test result.

foxtail, green = assay: Test D postemergence; assay type: in vivo, Setaria viridis; settings: scale 0 to 100
Text: as §1

oat, wild = assay: Test D preemergence; assay type: in vivo, Avena fatua; settings: for Plant response rating (0 to 100), Oat, Wild: 16 g ai/ha, 0 is no effect, 100 is complete control; for Plant response rating: Oat, Wild: scale 0 to 100
Text: as §1

corn = assay: Test C preemergence; assay type: in vivo, Zea mays; settings: for Plant response rating (scale of 0 to 100 where 0 is no effect and 100 is complete control): Corn, preemergence; for Corn plant response rating (0 to 100): Preemergence, visual rating after 13 to 15 d
Text: as §2

field violet = assay: Test D postemergence; assay type: in vivo, Viola arvensis; settings: scale 0 to 100
Text: as §1

SMILES | Plant response rating (0 to 100), Mustard, Wild (wild mustard) | Plant response rating: Mustard, Wild (wild mustard; 62 g ai/ha) | Plant response rating: Mustard, Wild (wild mustard; 125 g ai/ha) | Plant response rating: Oilseed Rape (oilseed rape; 16 g ai/ha) | Plant response rating: Oilseed Rape (oilseed rape; 31 g ai/ha) | Plant response rating: Oilseed Rape (oilseed rape; 62 g ai/ha) | Plant response rating: Oilseed Rape (oilseed rape; 125 g ai/ha) | Plant response rating (0 to 100), Bluegrass (bluegrass) | Plant response rating: Bluegrass (bluegrass; 31 g ai/ha) | Plant response rating: Bluegrass (bluegrass; 62 g ai/ha) | Plant response rating: Bluegrass (bluegrass; 125 g ai/ha) | Plant response rating: Blackgrass (blackgrass [1]; 16 g ai/ha) | Plant response rating: Blackgrass (blackgrass [1]; 31 g ai/ha) | Plant response rating: Blackgrass (blackgrass [1]; 62 g ai/ha) | Plant response rating: Blackgrass (blackgrass [1]; 125 g ai/ha) | Plant response rating (0 to 100), Blackgrass (blackgrass [2]) | Plant response rating: Blackgrass (blackgrass [2]; 31 g ai/ha) | Plant response rating: Blackgrass (blackgrass [2]; 62 g ai/ha) | Plant response rating: Blackgrass (blackgrass [2]; 125 g ai/ha) | Plant response rating: Foxtail, Green (foxtail, green; 16 g ai/ha) | further results
CCOc1nc(-c2ccc(C(F)(F)F)cc2)nn1Cc1ccnc(C(F)(F)F)c1 [Compound 35, 4-[[5-ethoxy-3-[4-(trifluoromethyl)phenyl]-1H-1,2,4-triazole-1-yl]methyl]-2-(trifluoromethyl)pyridine] | 70 | 100 | 100 | 80 | 90 | 100 | 100 | 70 | 80 | 95 | 100 | 35 | 55 | 70 | 80 | 35 | 40 | 65 | 95 | 70 | Plant response rating (scale of 0 to 100 where 0 is no effect and 100 is complete control) (lambsquarters; 125 g ai/ha): 100; Plant response rating (scale of 0 to 100 where 0 is no effect and 100 is complete control) (lambsquarters; 250 g ai/ha): 98; Lambsquarters plant response rating (0 to 100) (lambsquarters; 31 g ai/ha): 98; Lambsquarters plant response rating (0 to 100) (lambsquarters; 62 g ai/ha): 98; Plant response rating: Foxtail, Green (foxtail, green; 31 g ai/ha): 80; Plant response rating: Foxtail, Green (foxtail, green; 62 g ai/ha): 95; Plant response rating: Foxtail, Green (foxtail, green; 125 g ai/ha): 95; Plant response rating (0 to 100), Oat, Wild (oat, wild): 40; Plant response rating: Oat, Wild (oat, wild; 62 g ai/ha): 75; Plant response rating: Oat, Wild (oat, wild; 125 g ai/ha): 80; Plant response rating (scale of 0 to 100 where 0 is no effect and 100 is complete control) (corn; 125 g ai/ha): 35; Plant response rating (scale of 0 to 100 where 0 is no effect and 100 is complete control) (corn; 250 g ai/ha): 45; Corn plant response rating (0 to 100) (corn; 31 g ai/ha): 5; Corn plant response rating (0 to 100) (corn; 62 g ai/ha): 15; Plant response rating: Field Violet (field violet; 16 g ai/ha): 90; Plant response rating: Field Violet (field violet; 31 g ai/ha): 100; Plant response rating: Field Violet (field violet; 62 g ai/ha): 100; Plant response rating: Field Violet (field violet; 125 g ai/ha): 100
CCOc1nc(-c2ccccc2)nn1Cc1ccnc(C(F)(F)F)c1 [Compound 27] | 80 | 100 | 100 | 80 | 85 | 90 | 100 | 20 | 55 | 85 | 100 | 45 | 50 | 55 | 65 | 25 | 30 | 45 | 70 | 35 | Plant response rating (scale of 0 to 100 where 0 is no effect and 100 is complete control) (lambsquarters; 125 g ai/ha): 98; Plant response rating (scale of 0 to 100 where 0 is no effect and 100 is complete control) (lambsquarters; 250 g ai/ha): 100; Lambsquarters plant response rating (0 to 100) (lambsquarters; 31 g ai/ha): 90; Lambsquarters plant response rating (0 to 100) (lambsquarters; 62 g ai/ha): 98; Plant response rating: Foxtail, Green (foxtail, green; 31 g ai/ha): 65; Plant response rating: Foxtail, Green (foxtail, green; 62 g ai/ha): 80; Plant response rating: Foxtail, Green (foxtail, green; 125 g ai/ha): 95; Plant response rating (0 to 100), Oat, Wild (oat, wild): 25; Plant response rating: Oat, Wild (oat, wild; 62 g ai/ha): 45; Plant response rating: Oat, Wild (oat, wild; 125 g ai/ha): 75; Plant response rating (scale of 0 to 100 where 0 is no effect and 100 is complete control) (corn; 125 g ai/ha): 55; Plant response rating (scale of 0 to 100 where 0 is no effect and 100 is complete control) (corn; 250 g ai/ha): 60; Corn plant response rating (0 to 100) (corn; 31 g ai/ha): 25; Corn plant response rating (0 to 100) (corn; 62 g ai/ha): 40; Plant response rating: Field Violet (field violet; 16 g ai/ha): 70; Plant response rating: Field Violet (field violet; 31 g ai/ha): 75; Plant response rating: Field Violet (field violet; 62 g ai/ha): 80; Plant response rating: Field Violet (field violet; 125 g ai/ha): 80
COc1nc(-c2ccc(Cl)cc2)nn1Cc1ccnc(C(F)(F)F)c1 [Compound 28] | 90 | 100 | 100 | 65 | 75 | 75 | 85 | 25 | 35 | 45 | 85 | 25 | 35 | 55 | 60 | 30 | 30 | 50 | 50 | 25 | Plant response rating: Foxtail, Green (foxtail, green; 31 g ai/ha): 35; Plant response rating: Foxtail, Green (foxtail, green; 62 g ai/ha): 60; Plant response rating: Foxtail, Green (foxtail, green; 125 g ai/ha): 80; Plant response rating (0 to 100), Oat, Wild (oat, wild): 35; Plant response rating: Oat, Wild (oat, wild; 62 g ai/ha): 30; Plant response rating: Oat, Wild (oat, wild; 125 g ai/ha): 35; Plant response rating: Field Violet (field violet; 16 g ai/ha): 75; Plant response rating: Field Violet (field violet; 31 g ai/ha): 80; Plant response rating: Field Violet (field violet; 62 g ai/ha): 100; Plant response rating: Field Violet (field violet; 125 g ai/ha): 100
